Test results taken from patent publication EP0291321A2, “Element and method for determination of creatinine or creatine” (EASTMAN KODAK COMPANY (a New Jersey corporation), priority 1987, dated 1988).

Target: T1, sarcosine oxidase (Bacillus sp., UniProt P40859)
T1 sequence (P40859 1-390): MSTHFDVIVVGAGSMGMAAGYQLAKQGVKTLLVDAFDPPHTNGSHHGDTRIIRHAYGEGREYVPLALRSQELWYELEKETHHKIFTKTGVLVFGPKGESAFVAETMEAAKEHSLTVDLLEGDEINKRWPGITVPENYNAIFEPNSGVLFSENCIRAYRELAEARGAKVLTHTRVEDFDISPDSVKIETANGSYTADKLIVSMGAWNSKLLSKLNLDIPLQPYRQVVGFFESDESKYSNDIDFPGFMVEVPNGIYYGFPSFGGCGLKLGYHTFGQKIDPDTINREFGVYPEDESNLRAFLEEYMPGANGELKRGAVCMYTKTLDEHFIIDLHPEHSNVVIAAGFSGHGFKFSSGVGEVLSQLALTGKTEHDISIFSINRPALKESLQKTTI
Test: sarcosine oxidase activity on substrate at various pH (rate of change in absorbance per minute)
Assay type: biochemical
Settings: for Ratio (B/A): rate with N-ethyl glycine divided by rate with sarcosine
Method: Separate assays at various pH were conducted to determine the rate of change in absorbance per minute (ΔA/min) for sarcosine oxidase activity on its substrate sarcosine, and on N-ethyl glycine. The assay is based on the following reactions. [drawing 1]

Compound | rate of change in absorbance per minute (ΔA/min) for sarcosine oxidase activity (pH 6.5) | rate of change in absorbance per minute (ΔA/min) for sarcosine oxidase activity (pH 7.0) | rate of change in absorbance per minute (ΔA/min) for sarcosine oxidase activity (pH 7.5) | Ratio (B/A) (pH 6.5) | Ratio (B/A) (pH 7.0) | Ratio (B/A) (pH 7.5)
CNCC(=O)O [Sarcosine, sarcosine] | 1.56 ΔA/min | 2.20 ΔA/min | 2.76 ΔA/min | – | – | –
CCNCC(=O)O [N-Ethyl Glycine, N-ethyl glycine] | 0.017 ΔA/min | 0.053 ΔA/min | 0.134 ΔA/min | 0.011 | 0.024 | 0.048
